For 37 compounds, emission maximum results are on record in the Deep4Chem optical property database.

The nature of this data set: solvent given as SMILES.

“And” between values parts separate entries of the source, which are not always exact repeats. Equal values may be shown once.

In the case of `Cc1cc(C)c(B(c2ccc(N3c4ccccc4Oc4ccccc43)cc2)c2c(C)cc(C)cc2C)c(C)c1`, the emission maximum is, setting by setting: (in C1CCCCC1) 475.13 nm; (in C1CCOC1) 602.56 nm; (in CN(C)C=O) 665.64 nm; (in Cc1ccccc1) 540 nm; (in ClCCl) 598.46 nm.

With `CCCCC(CC)Cn1c2cc(C#N)ccc2c2cc(-c3ccc(N(c4ccccc4)c4ccccc4)cc3)c(C#N)cc21` (stereo not drawn), the emission maximum runs as follows: (in C1CCCCC1) 444 nm; (in C1CCOC1) 507 nm; (in CC#N) 548 nm; (in CCCCOCCCC) 464 nm; (in CCN(CC)CC) 461.69 nm; (in CCOC(C)=O) 463 nm. For the same compound, the emission maximum amounted to 501 nm (in CCOCC); 543 nm (in CN(C)C=O); 474 nm (in Cc1ccccc1); 477 nm (in ClC=C(Cl)Cl); 517 nm (in ClCCl).

Turning to `CCCCCCCCCCCCSc1cc2c3c(ccc4c5c(SCCCCCCCCCCCC)cc6c7c(ccc(c1c34)c75)C(=O)N(C1CCCCC1)C6=O)C(=O)N(C1CCCCC1)C2=O`, the emission maximum (in ClC(Cl)Cl) was 655 nm.

For `Cc1cc2nc3cc(C)c(N)cc3[n+](-c3ccccc3)c2cc1N`, the emission maximum is, setting by setting: (in CC(C)O) 562 nm; (in CCO) 564 nm; (in CO) 563.8 nm; (in O) 588.3 nm.

On to `CC1=[N+]2C(=C(c3ccc(C(=O)c4ccccc4)cc3)c3ccc(C)n3[B-]2(F)F)C=C1c1cc2n(c1)[B-](F)(F)[N+]1=CC=CC1=C2c1c(C)cc(C)cc1C`, for which the emission maximum is recorded as 645 nm (in C1CCCCC1) and 664 nm (in CCOC(C)=O).

Regarding `N#Cc1c2nc3ccccn3c2nc2nc3ccccn3c12`, the emission maximum runs as follows: (in C1CCCCC1) 485 nm; (in C1COCCO1) 505 nm; (in CC#N) 525 nm; (in CN(C)C=O) 540 nm; (in ClC(Cl)Cl) 510 nm.

With `CC(C)[Si](C#Cc1ccc(C#C[Si](C(C)C)(C(C)C)C(C)C)c2nc3cc4c(cc3nc12)[C@H]1c2ccccc2[C@@H]4c2ccccc21)(C(C)C)C(C)C`, the emission maximum by setting is: (in CCCCCC) 455 nm; (in ClCCl) 473 nm.

With `CC(C)(C)c1ccc2c(c1)sc1[n+]2[B-](F)(F)n2c(c3cccc4c(Br)ccc2c43)=C1C#N`, the emission maximum runs as follows: (in C1CCOC1) 563 nm; (in CC#N) 558 nm; (in CCCCCC) 558 nm; (in Cc1ccccc1) 563 nm; (in ClCCl) 560 nm.

`c1ccc(/C(=C(\c2ccccc2)c2ccccc2-c2ccc(-c3ccccc3)cc2)c2ccccc2-c2ccc(-c3ccccc3)cc2)cc1` displayed an emission maximum (in C1CCOC1) of 492 nm.

In the case of `CC(C)c1cc(C(C)C)c(B2c3cc(N4c5ccccc5C(C)(C)c5ccccc54)ccc3N(c3ccccc3)c3ccc(N4c5ccccc5C(C)(C)c5ccccc54)cc32)c(C(C)C)c1`, the emission maximum (in C1CCOC1) is given as 485.71 nm; the emission maximum (in CCOC(C)=O) is 481.97 nm; the emission maximum (in Cc1ccccc1) worked out at 469.39 nm; the emission maximum (in ClCCl) was found to be 494.56 nm; the emission maximum (in c1cc(-c2cccc(-n3c4ccccc4c4ccccc43)c2)cc(-n2c3ccccc3c3ccccc32)c1) was 469 nm.

`Cn1c(=O)cc(C(=O)c2ccccc2)c2sc(-c3ccc(C(F)(F)F)cc3)cc21`: the emission maximum reads like this: (in CC#N) 517 nm; (in ClCCl) 511 nm.

Under “in C1CCOC1”, `N#C/C(=C\c1ccc(C=C(c2ccccc2)c2ccccc2)cc1)c1ccccc1` showed an emission maximum of 468 nm.

For `CN(C)c1ccc2nc(-c3ccccc3)sc2c1Cl`, the emission maximum came out at 389 nm (in C1CCCCC1); 466 nm (in CC#N); 477.17 nm (in CC(C)O); 472 nm (in CO); 465.05 nm (in CS(C)=O); 437 nm (in ClC(Cl)Cl). Besides, for the setting “in c1ccccc1”, the emission maximum came to 425.86 nm.

For `CC(C)(C)c1cc2cc(N(c3ccccc3)c3ccccc3)c3cc(C(C)(C)C)cc4cc(N(c5ccccc5)c5ccccc5)c(c1)c2c43`, the emission maximum worked out at 466.72 nm (in C1CCOC1), 497.22 nm (in CC#N) and 426 nm (in CCCCCC).

`N#Cc1nc(N(Cc2ccccc2F)Cc2ccccc2F)c(C#N)nc1N(Cc1ccccc1F)Cc1ccccc1F` registered an emission maximum (in ClC(Cl)Cl) of 570 nm.

Consider `c1ccc2c[n+]3ccccc3cc2c1`, for which the emission maximum (in O) was 404 nm.

Consider `CCN1\C(=C/C=C/C=C/C2=[N+](CC)c3ccc4ccccc4c3C2(C)C)C(C)(C)c2c1ccc1ccccc21`, for which the emission maximum came to 707 nm (in C1CCOC1); 695 nm (in CC#N); 698 nm (in CC(C)=O); 702 nm (in CCO); 702 nm (in CN(C)C=O); 698 nm (in CO). Moreover, the emission maximum is reported as 705 nm (in CS(C)=O) and 710 nm (in ClCCl).

For the compound `CCC1=C(C)C2=C(c3c4ccccc4cc4ccccc34)c3c(C)c(CC)c(C)n3[B-](F)(F)[N+]2=C1C`, the emission maximum was 537 nm (in CC#N); 539 nm (in CCCCCC); 539 nm (in CCO); 541 nm (in CN(C)C=O); 544 nm (in Cc1ccccc1); 543 nm (in ClCCl).

Compound `CC(C)Nc1cc2c(cc1F)c(=O)c1cc(F)c(NC(C)C)cc1n2C` yielded an emission maximum (in CCO) of 421 nm.

Compound `CC1(C)OB(c2cc3ccc4cccc5ccc(c2)c3c45)OC1(C)C` returned an emission maximum (in Cc1ccccc1) of 386 nm.

For the setting “in ClCCl”, `Cc1c(C(=O)c2ccccc2)c2ccc3cccc4c5cccc6ccc1c(c65)c2c34` displayed an emission maximum of 478 nm.

`CCCCCCCCCC1(CCCCCCCCC)c2cc(C#Cc3ccc(C#Cc4ccc(N(CCCCCC)CCCCCC)cc4)cc3)ccc2-c2ccc(C#Cc3ccc(C#Cc4ccc(N(CCCCCC)CCCCCC)cc4)cc3)cc21`: for the setting “in Cc1ccccc1”, the emission maximum is 433 nm.

Consider `c1ccc2cc(-c3c4ccccc4c(-c4ccc(-c5ccc(-n6c7ccccc7c7ccccc76)cc5)cc4)c4ccccc34)ccc2c1`, for which the emission maximum (in ClCCl) is reported as 427 nm.

`CCCCC(CC)Cn1c2cc(C#N)c(-c3ccc(N(c4ccccc4)c4ccccc4)cc3)cc2c2cc(-c3ccc(N(c4ccccc4)c4ccccc4)cc3)c(C#N)cc21` (stereo not drawn): the emission maximum reads like this: (in C1CCCCC1) 450 nm; (in C1CCOC1) 494 nm; (in CC#N) 542 nm; (in CCCCOCCCC) 464 nm; (in CCN(CC)CC) 464.65 nm; (in CCOC(C)=O) 494 nm. Also, the emission maximum runs as follows: (in CCOCC) 472 nm; (in CN(C)C=O) 542 nm; (in Cc1ccccc1) 473 nm; (in ClC=C(Cl)Cl) 478 nm; (in ClCCl) 513 nm.

In the case of `COc1ccc(N(c2ccccc2)c2cc3ccc4cc(N(c5ccccc5)c5ccc(OC)cc5)cc5ccc(c2)c3c45)cc1`, under “in Cc1ccccc1”, the emission maximum was 482 nm.

`c1ccc([Si]2(c3ccccc3)c3ccccc3-c3cc4c(cc32)-c2ccccc2[Si]4(c2ccccc2)c2ccccc2)cc1` yielded an emission maximum (in ClCCl) of 395 nm.

Consider `CCCCC1(c2ccccc2)Nc2c(-c3ccc(OC)cc3)ccc(-c3ccc(OC)cc3)c2N=C1c1ccccc1` (stereo not drawn), for which the emission maximum is 547 nm (in C1CCOC1); 556 nm (in CC#N); 517 nm (in CCCCCC); 568 nm (in CN(C)C=O); 525 nm (in Cc1ccccc1); 537 nm (in ClC(Cl)Cl).

For the setting “in ClCCl”, `COc1cc2c(cc1OC)C1=C[C@H](c3ccccc3)C3(C(C#N)=C(C#N)N1CC2)c1ccccc1-c1ccccc13` gave an emission maximum of 410 nm.

Consider `O=c1oc2ccc3ccccc3c2nc1-c1ccccc1`, for which the emission maximum by setting is: (in CC#N) 475 nm; (in CCCCCC) 453 nm; (in CO) 476 nm; (in c1ccccc1) 467 nm and 460 nm.

For the compound `COC(C)CC1=N/C(=C\c2cccc(N(C)C)c2)C(=O)N1C` (stereo not drawn), the emission maximum (in C1CCOC1) is 569 nm, the emission maximum (in CC#N) is listed as 632 nm and the emission maximum (in CCCCCC) was found to be 495 nm.

Consider `CCCn1c2cccc3c2[c+]2c4c1cccc4n(CCC)c1cccc(c12)n3CCC`, for which the emission maximum (in CC#N) is recorded as 557 nm.

As for `c1ccc2c(c1)cc(-c1cc(-c3nccs3)nc(-c3nccs3)c1)c1ccccc12`, the emission maximum reads like this: (in CC#N) 403 nm; (in CCCCCC) 361 nm; (in CO) 431 nm; (in ClC(Cl)Cl) 383 nm.

On to `F[B-]1(F)n2c(c(-c3ccccc3)c(-c3ccccc3)c2-c2ccccc2)C(c2ccccc2)=C2C(c3ccccc3)=C(c3ccccc3)C(c3ccccc3)=[N+]21`, for which the emission maximum (in C1CCOC1) turned out to be 613 nm.

For `CCn1c2c(-c3ccc(-c4cccs4)s3)cc(C(C)(C)C)cc2c2cc(C(C)(C)C)cc(-c3ccc(-c4cccs4)s3)c21`, the emission maximum (in ClCCl) is recorded as 440 nm.

With `CC1(C)c2ccccc2N(c2ccc(-c3ccc(C#N)cn3)cc2)c2ccccc21`, the emission maximum came out at 504 nm (in Cc1ccccc1) and 495 nm (in N#Cc1ccc2c(c1)c1ccccc1n2-c1cccc(-n2c3ccccc3c3ccccc32)c1).

With `COCCOCCOCCOc1ccc(OCCOCCOCCOC)c(C=O)c1`, the emission maximum is given as 444 nm (in CC(C)(C)O); 453 nm (in CC(C)CO); 455 nm (in CC(C)O); 458 nm (in CCCCO); 459 nm (in CCCO); 462 nm (in CCO). Moreover, the emission maximum reads like this: (in CN(C)C=O) 423 nm; (in CNC=O) 458 nm; (in CO) 468 nm; (in NC=O) 463 nm; (in O) 485 nm.

For the setting “in CS(C)=O”, `O=C(O)CCCOc1cccc(-c2c3nc(cc4ccc([nH]4)c(-c4cccc(OCCCC(=O)O)c4)c4nc(cc5ccc2[nH]5)CC4)C=C3)c1` displayed an emission maximum of 649 nm.
